biological target: T1, APOL1 (Homo sapiens, UniProt O14791); assay: MultiTox-Fluor Multiplex Cytotoxicity Assay, tet-inducible APOL1 T-REx-HEK293 cells (G0, G1 or G2 clone not specified for Table 20); assay type: cell-based; settings: tet-induced, 24 hours with compound, ratio of dead to live cells, read-out: IP50 (i.e., IC50 for cell proliferation)
T1 sequence (O14791 1-398): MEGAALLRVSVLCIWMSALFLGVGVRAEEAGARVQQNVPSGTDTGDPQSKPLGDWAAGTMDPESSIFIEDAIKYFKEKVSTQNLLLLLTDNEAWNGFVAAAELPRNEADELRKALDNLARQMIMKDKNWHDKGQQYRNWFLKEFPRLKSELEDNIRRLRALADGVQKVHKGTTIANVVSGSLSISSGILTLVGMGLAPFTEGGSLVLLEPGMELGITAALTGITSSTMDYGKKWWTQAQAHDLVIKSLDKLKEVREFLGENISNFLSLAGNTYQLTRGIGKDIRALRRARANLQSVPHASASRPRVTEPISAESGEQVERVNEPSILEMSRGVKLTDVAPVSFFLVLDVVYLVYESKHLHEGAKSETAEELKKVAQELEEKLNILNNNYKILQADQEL
Outline: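 HEK293 T-REx cells with tet-inducible APOL1 G0, G1 or G2 clone, 23,400/well, treated with tetracycline plus compound (top 10 μM, 10-point 3-fold, duplicate) for 24 h at 37° C. MultiTox-Fluor dead/live fluorescence ratio, normalized to no-tet (100% viability) and 50 ng/mL tet (0% viability) controls, then curve-fitted.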

`CC(CO)(CO)Cn1cc(CN2CCC3(CC2)OC(C(N)=O)c2ccc(Cl)cc23)cn1` (centres unmarked) [Compound 279, 5-chloro-1′-[[1-[3-hydroxy-2-(hydroxymethyl)-2-methyl-propyl]pyrazol-4-yl]methyl]spiro[1H-isobenzofuran-3,4′-piperidine]-1-carboxamide] and `NC(=O)C1OC2(CCN(Cc3cnn(C[C@@H](O)CO)c3)CC2)c2cc(Cl)ccc21` (some centres unmarked) [Compound 283] cannot be ordered by IC50: at most 50 nM for the first, 50 to 500 nM for the second.

`NC(=O)C1OC2(CCN(Cc3cnn(CC(O)C4(O)CCC4)c3)CC2)c2cc(Cl)ccc21` (centres unmarked) [Compound 280, 5-chloro-1′-[[1-[2-hydroxy-2-(1-hydroxycyclobutyl)ethyl]pyrazol-4-yl]methyl]spiro[1H-isobenzofuran-3,4′-piperidine]-1-carboxamide] and `NC(=O)C1OC2(CCN(Cc3cnn(CC(O)C4(O)CCOCC4)c3)CC2)c2cc(Cl)ccc21` (centres unmarked) [Compound 281] cannot be ordered by IC50: at most 50 nM for the first, at most 50 nM for the second.

`NC(=O)C1OC2(CCN(Cc3cnn(CC4(O)CCS(=O)(=O)CC4)c3)CC2)c2cc(Cl)ccc21` (centres unmarked) [Compound 282] and `NC(=O)Cn1cc(CN2CCC3(CC2)OC(C(N)=O)c2ccc(Cl)cc23)cn1` (centres unmarked) [Compound 285] cannot be ordered by IC50: at most 50 nM for the first, 50 to 500 nM for the second.

`CN(C)C(=O)Cn1cc(CN2CCC3(CC2)OC(C(N)=O)c2ccc(Cl)cc23)cn1` (centres unmarked) [Compound 284] and `CNC(=O)C1OC2(CCN(Cc3cnn(C(C)C)c3)CC2)c2cc(Cl)ccc21` (centres unmarked) [Compound 298, 6-chloro-1′-((1-isopropyl-1H-pyrazol-4-yl)methyl)-N-methyl-3H-spiro[isobenzofuran-1,4′-piperidine]-3-carboxamide] cannot be ordered by IC50: 50 to 500 nM for the first, at least 500 nM for the second.

`Cc1ccc2c(c1)C1(CCN(Cc3cnn(C)c3)CC1)OC2` [Compound 286, 5-methyl-1′-[(1-methylpyrazol-4-yl)methyl]spiro[1H-isobenzofuran-3,4′-piperidine]] and `Cc1ccc2c(c1)C1(CCN(Cc3cnn(C)c3)CC1)SC2` [Compound 304, 5-methyl-1′-[(1-methylpyrazol-4-yl)methyl]spiro[1H-2-benzothiophene-3,4′-piperidine]] cannot be ordered by IC50: at least 500 nM for the first, at least 500 nM for the second.

`Cc1ccc2c(c1)C1(CCN(Cc3ccc(OCC(C)(C)N)nc3)CC1)OC2(C)C` [Compound 288, 2-methyl-1-[[5-[(1,1,5-trimethylspiro[isobenzofuran-3,4′-piperidine]-1′-yl)methyl]-2-pyridyl]oxy]propan-2-amine] and `Cc1ccc2c(c1)C1(CCN(Cc3cnn(CCS(C)(=O)=O)c3)CC1)OC2(C)C` [Compound 289, 1,1,5-trimethyl-1′-[[1-(2-methylsulfonylethyl)pyrazol-4-yl]methyl]spiro[isobenzofuran-3,4′-piperidine]] cannot be ordered by IC50: 50 to 500 nM for the first, at least 500 nM for the second.

Compared with `C[C@H]1CC2(CCN1Cc1cnn(-c3ccccc3)c1)OC(C(N)=O)c1ccc(Cl)cc12` (stereo partly drawn) [Compound 292, (2′S)-5-chloro-2′-methyl-1′-[(1-phenylpyrazol-4-yl)methyl]spiro[1H-isobenzofuran-3,4′-piperidine]-1-carboxamide], `COc1ccc2c(c1)C1(CCN(Cc3cnn(-c4ccccc4)c3)CC1)OC2C(N)=O` (centres unmarked) [Compound 296, 6-methoxy-1′-((1-phenyl-1H-pyrazol-4-yl)methyl)-3H-spiro[isobenzofuran-1,4′-piperidine]-3-carboxamide] is higher in IC50: at most 50 nM for the first, at least 500 nM for the second.

First: CNC(=O)C1OC2(CCN(Cc3cnn(-c4cccc(C(F)(F)F)c4)c3)CC2)c2cc(Cl)ccc21 (centres unmarked) [Compound 295, 5-chloro-N-methyl-1′-[[1-[3-(trifluoromethyl)phenyl]pyrazol-4-yl]methyl]spiro[1H-isobenzofuran-3,4′-piperidine]-1-carboxamide]
Second: CNC(=O)C1OC2(CCN(Cc3cnn(-c4ccccc4)c3)CC2)c2cc(OC)ccc21 (centres unmarked) [Compound 297, 6-methoxy-N-methyl-1′-((1-phenyl-1H-pyrazol-4-yl)methyl)-3H-spiro[isobenzofuran-1,4′-piperidine]-3-carboxamide]
The IC50 of the first is lower: at most 50 nM for the first, at least 500 nM for the second. The first is the more potent here.

`CNC(=O)C1OC2(CCN(Cc3cnn(-c4ccccc4)c3C)CC2)c2cc(Cl)ccc21` (centres unmarked) [Compound 299, 6-chloro-N-methyl-1′-((5-methyl-1-phenyl-1H-pyrazol-4-yl)methyl)-3H-spiro[isobenzofuran-1,4′-piperidine]-3-carboxamide] and `CC(=O)N1CC2(CCN(Cc3cnn(C)c3)CC2)c2cc(Cl)ccc21` [Compound 314, 1-[5-chloro-1′-[(1-methylpyrazol-4-yl)methyl]spiro[indoline-3,4′-piperidine]-1-yl]ethenone] cannot be ordered by IC50: at least 500 nM for the first, at least 500 nM for the second.

`CS(=O)(=O)CCn1cc(CN2CCC3(CC2)CC(O)c2ccc(Cl)cc23)cn1` (centres unmarked) [Compound 302, 5-chloro-1′-[[1-(2-methylsulfonylethyl)pyrazol-4-yl]methyl]spiro[indane-3,4′-piperidine]-1-ol] and `CS(=O)(=O)CCn1cc(CN2CCC3(CC2)CNc2ccc(Cl)cc23)cn1` [Compound 305, 5-chloro-1′-[[1-(2-methylsulfonylethyl)pyrazol-4-yl]methyl]spiro[indoline-3,4′-piperidine]] cannot be ordered by IC50: 50 to 500 nM for the first, at least 500 nM for the second.

`CC1(O)CC2(CCN(Cc3cnn(CCS(C)(=O)=O)c3)CC2)c2cc(Cl)ccc21` (centres unmarked) [Compound 303, 5-chloro-1-methyl-1′-[[1-(2-methylsulfonylethyl)pyrazol-4-yl]methyl]spiro[indane-3,4′-piperidine]-1-ol] and `CS(=O)(=O)CCn1cc(CN2CCC3(CC2)CC(N2CCNC2=O)c2ccc(Cl)cc23)cn1` (centres unmarked) [Compound 312, 1-[5-chloro-1′-[[1-(2-methylsulfonylethyl)pyrazol-4-yl]methyl]spiro[indane-3,4′-piperidine]-1-yl]imidazolidin-2-one] cannot be ordered by IC50: at least 500 nM for the first, at least 500 nM for the second.

`Cc1ccc2c(c1)C1(CCN(Cc3cnn(CCS(C)(=O)=O)c3)[C@@H](C)C1)CC2O` (stereo partly drawn) [Compound 308, (2′S)-2′,5-dimethyl-1′-[[1-(2-methylsulfonylethyl)pyrazol-4-yl]methyl]spiro[indane-3,4′-piperidine]-1-ol] and `Cc1cccc2c1C(O)CC21CCN(Cc2cnn(CCS(C)(=O)=O)c2)[C@@H](C)C1` (stereo partly drawn) [Compound 309, (2′S)-2′,4-dimethyl-1′-((1-(2-(methylsulfonyl)ethyl)-1H-pyrazol-4-yl)methyl)-2,3-dihydrospiro[indene-1,4′-piperidin]-3-ol] cannot be ordered by IC50: at most 50 nM for the first, 50 to 500 nM for the second.

`Cn1cc(CN2CCC3(CCc4ccc(Cl)cc43)CC2)cn1` [Compound 310, 6-chloro-1′-[(1-methylpyrazol-4-yl)methyl]spiro[indane-1,4′-piperidine]] and `Cn1cc(CN2CCC3(CC2)NCc2ccc(Cl)cc23)cn1` [Compound 311, 6-chloro-1′-[(1-methylpyrazol-4-yl)methyl]spiro[isoindoline-1,4′-piperidine]] cannot be ordered by IC50: at least 500 nM for the first, at least 500 nM for the second.

— patent US20250195483A1, “SPIRO PIPERIDINE DERIVATIVES AS INHIBITORS OF APOL1 AND METHODS OF USING SAME” (Vertex Pharmaceuticals Incorporated, priority 2022, published 2025)
